The source of these data is publication PMC9225712, “Rational design of biodegradable sulphonamide candidates treating septicaemia by synergistic dual inhibition of COX-2/PGE2 axis and DHPS enzyme” (Journal of Enzyme Inhibition and Medicinal Chemistry, 2022).

Marks after values point to notes of the source that are not given here.

The target of one data set is T1, ovine COX-1 (Ovis aries, UniProt P05979).
T1 construct: purchased Cayman Chemicals Inc. 560131
T1 sequence (P05979 25-600): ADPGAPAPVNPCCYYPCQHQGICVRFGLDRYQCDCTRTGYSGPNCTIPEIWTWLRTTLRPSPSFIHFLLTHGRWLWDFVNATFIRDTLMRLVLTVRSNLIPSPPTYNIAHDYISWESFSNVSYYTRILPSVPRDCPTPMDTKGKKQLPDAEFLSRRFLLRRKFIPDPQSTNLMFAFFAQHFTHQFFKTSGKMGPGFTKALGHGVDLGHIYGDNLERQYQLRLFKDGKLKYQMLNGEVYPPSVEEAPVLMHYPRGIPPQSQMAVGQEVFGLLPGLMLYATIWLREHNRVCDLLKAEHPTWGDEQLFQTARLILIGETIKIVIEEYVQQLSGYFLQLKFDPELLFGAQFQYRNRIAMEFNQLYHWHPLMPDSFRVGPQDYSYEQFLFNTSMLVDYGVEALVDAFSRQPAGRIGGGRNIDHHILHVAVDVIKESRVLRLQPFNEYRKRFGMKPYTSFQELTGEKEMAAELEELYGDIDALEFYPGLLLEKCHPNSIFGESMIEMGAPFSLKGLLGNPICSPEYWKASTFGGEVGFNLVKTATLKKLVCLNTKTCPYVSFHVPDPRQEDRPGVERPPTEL
Description: In vitro COX-1 enzymatic assay (Cayman kit 560131). Format: biochemical. As to conditions: Mean ± SEM of triplicate determinations.

In data set [1] the test system is Salmonella typhi (RCMB 0100104). In words: Inhibition zone, agar cup diffusion. Format: cell-based. As to conditions: Salmonella enterica, 24 h, read-out: inhibition zones (IZ) S. typhi.
Data set [2] relates to Shigella dysenteriae (RCMB 0100542). Description: Inhibition zone, agar cup diffusion. Format: cell-based. As to conditions: RCMB0100542, 24 h, read-out: inhibition zones (IZ) S. dysenteriae.
Data set [3] has as its system Gram-positive and Gram-negative bacteria. In words: In vitro antibacterial screening, whole panel. As to conditions: whole bacterial panel, result in words. Format: cell-based.
Data set [4] relates to Staphylococcus aureus (RCMB 0100183). In words: Inhibition zone, agar cup diffusion. As to conditions: RCMB0100183, 24 h, read-out: inhibition zones (IZ) S. aureus.
The test system of data set [5] is Staphylococcus epidermidis (RCMB 0100183). Description: Inhibition zone, agar cup diffusion. As to conditions: RCMB0100183, 24 h, read-out: inhibition zones (IZ) S. epidermidis.
In data set [6] the test system is Streptococcus mutans (RCMB 0100172). In words: Inhibition zone, agar cup diffusion. As to conditions: RCMB0100172, 24 h, read-out: inhibition zones (IZ) S. mutans.
Data set [7] relates to Bacillus subtilis (RCMB 0100162). Description: Inhibition zone, agar cup diffusion. As to conditions: RCMB0100162, 24 h, read-out: inhibition zones (IZ) B. subtillis.
The test system of data set [8] is Pseudomonas aeruginosa (RCMB 0100243). Description: Inhibition zone, agar cup diffusion. As to conditions: RCMB0100243, 24 h, read-out: inhibition zones (IZ) P.aeruginosa.
Data set [9] concerns Escherichia coli (RCMB 010052). Description: Inhibition zone, agar cup diffusion. As to conditions: RCMB010052, 24 h, read-out: inhibition zones (IZ) E.coli.
For data set [10], the system named is Proteus vulgaris (RCMB 010085). In words: Inhibition zone, agar cup diffusion. As to conditions: RCMB010085, 24 h, read-out: inhibition zones (IZ) P. vulgaris.
Another data set deals with T2, human recombinant COX-2 (Homo sapiens, UniProt P35354).
T2 sequence (P35354 18-604): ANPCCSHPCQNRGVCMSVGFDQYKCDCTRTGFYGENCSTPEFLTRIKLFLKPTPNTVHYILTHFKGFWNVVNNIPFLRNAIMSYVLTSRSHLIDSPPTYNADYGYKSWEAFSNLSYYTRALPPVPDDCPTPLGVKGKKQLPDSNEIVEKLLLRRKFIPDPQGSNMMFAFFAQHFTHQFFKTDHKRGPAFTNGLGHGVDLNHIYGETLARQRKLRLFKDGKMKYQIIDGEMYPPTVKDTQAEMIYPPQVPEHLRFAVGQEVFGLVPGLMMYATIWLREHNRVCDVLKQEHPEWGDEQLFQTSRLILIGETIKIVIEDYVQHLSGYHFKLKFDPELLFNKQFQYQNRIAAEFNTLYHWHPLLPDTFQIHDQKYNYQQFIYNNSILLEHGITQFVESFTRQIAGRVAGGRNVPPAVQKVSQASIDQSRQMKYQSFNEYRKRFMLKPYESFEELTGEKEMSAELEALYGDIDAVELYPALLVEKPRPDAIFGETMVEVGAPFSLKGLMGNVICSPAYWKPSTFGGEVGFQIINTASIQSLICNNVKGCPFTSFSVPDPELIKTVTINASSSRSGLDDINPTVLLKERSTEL
Description: In vitro COX-2 enzymatic assay (Cayman kit 560131). As to conditions: for SI COX-1/COX-2: COX-2 selectivity index: COX-1 IC50/COX-2 IC50.

The subject of another data set is PGE2. In words: Estimation of rat plasma PGE2. As to conditions: po 10 µmol/kg b.wt., 8 h after carrageenan; for % inhibition of PGE2-production: rat serum; for PGE2 serum conc.: rat, Mean ± SEM, n = 5.
For data set [11], the system named is carrageenan-induced paw edoema. Description: Carrageenan-induced paw edoema in mice. As to conditions: for ED50: Mus musculus, read-out: ED50 (95% confidence level); for ED50 / percentage anti-inflammatory activity (AI%) 8h: 8 h; for Thickness of edoema 0h / percentage anti-inflammatory activity (AI%) 2h / Thickness of edoema 2h / percentage anti-inflammatory activity (AI%) 4h / Thickness of edoema 4h / percentage anti-inflammatory activity (AI%) 6h / Thickness of edoema 6h / percentage anti-inflammatory activity (AI%) 8h / Thickness of edoema 8h: mice, po 10 µmol/kg b.wt.; for Thickness of edoema 0h: 0 h (before carrageenan); for Thickness of edoema 0h / Thickness of edoema 2h / Thickness of edoema 4h / Thickness of edoema 6h / Thickness of edoema 8h: Mean ± SEM, n = 5; for Thickness of edoema 2h: 2 h after carrageenan; for Thickness of edoema 4h: 4 h after carrageenan; for Thickness of edoema 6h: 6 h after carrageenan; for Thickness of edoema 8h: 8 h after carrageenan. For orientation: The carrageenan paw model is a standard test of acute inflammation.

The test system of the next data set is gastric layers. Description: Gastric ulcerogenic activity. As to conditions: fasted male Wistar rats, oral 30 µmol/kg twice at 4 h interval.

Broadly, the ED50 is the midpoint of the dose-response relation. Regarding `O=C(O)c1cc(/N=N/c2ccc(S(=O)(=O)Nc3ccccn3)cc2)ccc1O` [Sulfasalazine, reference compound], the ED50 with S. aureus Smith (Staphylococcus aureus, in Mus musculus, read-out: ED50 against S. aureus infection) was 314 µmol/kg; in the data set with E. coli C11 (Escherichia coli, C11, in Mus musculus, read-out: ED50 against E.coli infection), 419 µmol/kg. Moreover, the “ED50, protective effect against bacteremic infection, Staphylococcus aureus” value in the data set with S. aureus Smith (mice, challenge dose 9.5x10^6 CFU/mouse ip, intragastric once a day for 7 days, survival) was found to be 313.7 µmol/kg/day. Also, the “ED50, protective effect against bacteremic infection, Escherichia coli” value with E. coli C11 (mice, challenge dose 7.1x10^3 CFU/mouse ip, intragastric once a day for 7 days, survival) worked out at 419.2 µmol/kg/day.

By IC50 is commonly meant the concentration at which inhibition is half-maximal. For `O=C(c1cc(/N=N/c2ccc(S(=O)(=O)Nc3nccs3)cc2)ccc1O)N1CCCCC1` [Compound 5i, 4-((4-Hydroxy-3-(piperidine-1-carbonyl)phenyl)diazenyl)-N-(thiazol-2-yl) benzenesulfonamide], the IC50 against ovine COX-1 is 11.2 ± 0.11 µM; on human recombinant COX-2 it was 0.08 ± 0.0008 µM. Also, the zone of inhibition at 1000 µg/mL in data set [1] was 15 mm; in data set [2] it was 22 mm; in data set [4] it was 25 mm; in [5] it was 30 mm; in data set [6], 31 mm; in [7], 19 mm. The zone of inhibition at 1000 µg/mL amounted to 18 mm in [8], 16 mm in data set [9] and 18 mm in data set [10]. In [3], the “in vitro antibacterial activity” value is given as “weak in vitro antibacterial activity”. In addition, on human recombinant COX-2, the “SI COX-1/COX-2” value came out at 136.6.

Consider `Cc1ccc(-c2cc(C(F)(F)F)nn2-c2ccc(S(N)(=O)=O)cc2)cc1` [Celecoxib, reference compound], for which, in the data set on PGE2, the “% inhibition of PGE2-production” value is reported as 71.18% and the PGE2 serum conc. was 380.636 ± 5.53 pg/mL. In data set [11], the ED50 came to 13.1 µmol/kg, the “Thickness of edoema 0h” value was found to be 0.62 ± 0.01 mm, the “percentage anti-inflammatory activity (AI%) 2h” value is “(6.32%)^d” and the “Thickness of edoema 2h” value was 0.89 ± 0.01^c mm. Moreover, in data set [11], the “percentage anti-inflammatory activity (AI%) 4h” value is reported as “(45.14%)”, the “Thickness of edoema 4h” value was 0.79 ± 0.01^c mm, the “percentage anti-inflammatory activity (AI%) 6h” value is listed as “(64.39%)” and the “Thickness of edoema 6h” value is listed as 0.73 ± 0.03^c mm. In addition, in [11], the “percentage anti-inflammatory activity (AI%) 8h” value is on record as “(70.87%)” and the “Thickness of edoema 8h” value is on record as 0.67 ± 0.02^c mm. Also, the “percentage anti-inflammatory activity (AI%) 8h” value in data set [11] (listed as celecoxib) is listed as 70.87%.

`Cc1ccnc(NS(=O)(=O)c2ccc(/N=N/c3ccc(O)c(C(=O)N4CCCCC4)c3)cc2)n1` [Compound 5k, 4-((4-Hydroxy-3-(piperidine-1-carbonyl)phenyl)diazenyl)-N-(4-methylpyrimidin-2-yl) benzenesulfonamide]: the IC50 against ovine COX-1 amounted to 10.3 ± 0.08 µM; at human recombinant COX-2, 0.09 ± 0.0003 µM. For the same molecule, the zone of inhibition at 1000 µg/mL in [1] was determined as 14 mm; in [2], 25 mm; in [4] it was 19 mm; in [5], 32 mm; in [6], 28 mm; in data set [7] it was 18 mm. Also, the results for the zone of inhibition at 1000 µg/mL in data set [8], in [9] and in data set [10] were 14 mm, 16 mm and 19 mm, respectively. In data set [3], the “in vitro antibacterial activity” value was “weak in vitro antibacterial activity”. In addition, the “SI COX-1/COX-2” value on human recombinant COX-2 was found to be 111.9.

In the case of `O=C(c1cc(N=Nc2ccc(S(=O)(=O)Nc3nccs3)cc2)ccc1O)N1CCOCC1` [Compound 5m, 4-((4-Hydroxy-3-(morpholine-4-carbonyl)phenyl)diazenyl)-N-(thiazol-2-yl)benzenesulfonamide], the IC50 at ovine COX-1 is 9.9 µM; on human recombinant COX-2 it was 0.1 ± 0.0008 µM. For the same molecule, the zone of inhibition at 1000 µg/mL worked out at 16 mm in data set [1]; 24 mm in data set [2]; 25 mm in data set [4]; 33 mm in data set [5]; 29 mm in data set [6]; 20 mm in [7]. The results for the zone of inhibition at 1000 µg/mL in data set [8], in data set [9] and in [10] were 18 mm, 18 mm and 16 mm, respectively. Also, the “in vitro antibacterial activity” value in data set [3] is “weak in vitro antibacterial activity”. Also, the “SI COX-1/COX-2” value on human recombinant COX-2 is listed as 102.1.

For `O=C(O)Cc1ccccc1Nc1c(Cl)cccc1Cl` [Diclofenac sodium, reference compound], in the data set with gastric layers, the “Gastric ulcerogenic effect, histopathological examination of gastric layers” value is “erosion in the gastric layers”; the “Gastric ulcerogenic effect, monitoring of isolated stomachs” value was “signs of gastric ulcers and hyperaemia”. In addition, in the data set on PGE2, the “% inhibition of PGE2-production” value was 79.10% and the PGE2 serum conc. is 276.052 ± 5.60 pg/mL. For the same molecule, in data set [11], the ED50 came to 11.5 µmol/kg, the “Thickness of edoema 0h” value was 0.69 ± 0.004 mm, the “percentage anti-inflammatory activity (AI%) 2h” value is recorded as “(-11.58%)” and the “Thickness of edoema 2h” value was 1.06 ± 0.03^c mm. Moreover, in data set [11], the “percentage anti-inflammatory activity (AI%) 4h” value is “(38.19%)”, the “Thickness of edoema 4h” value is 0.89 ± 0.01^c mm, the “percentage anti-inflammatory activity (AI%) 6h” value is reported as “(60.98%)” and the “Thickness of edoema 6h” value is given as 0.80 ± 0.01^c mm. Besides, the “Thickness of edoema 8h” value in data set [11] was 0.71 ± 0.01^c mm.
